# Data published in EP0328090A2 (priority 1988, dated 1989).
# Starred links: 1 amine or outer side, 2 acyl side, 3 side chain; linkers in the order of their positions; H or OH if unused. Non-standard residues stand in square brackets, D forms with d. Residues, ends and D or L forms follow the SMILES beside them. X1 = CCNC[C@@H](C(=O)[*:2])N(C)[*:1]; Sar = CNCC(=O)O
# Target: T1, LHRH receptors (Rattus norvegicus, UniProt P30969)
# T1 sequence (P30969 1-327): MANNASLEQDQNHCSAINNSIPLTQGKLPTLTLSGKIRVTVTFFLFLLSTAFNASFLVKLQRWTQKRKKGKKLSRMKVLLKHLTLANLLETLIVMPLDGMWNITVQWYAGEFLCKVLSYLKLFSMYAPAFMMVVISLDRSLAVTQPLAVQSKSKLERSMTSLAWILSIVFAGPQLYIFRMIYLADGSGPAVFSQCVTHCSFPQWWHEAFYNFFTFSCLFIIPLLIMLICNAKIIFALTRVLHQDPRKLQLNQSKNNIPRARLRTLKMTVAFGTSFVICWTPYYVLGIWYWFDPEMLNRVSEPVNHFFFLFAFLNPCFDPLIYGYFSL
# Experiment: Radioligand receptor binding assay
# Details: rat pituitary membranes; radioiodinated [D-Leu⁶-des Gly¹⁰]-LHRH ethyl amide 50pM; 2 hours at 4°C; read-out: Receptor Binding pkI (converted)
# Method: (§1) The biological activities of the compounds of the invention are determined by the following assays: • (a) Receptor Binding. A radioligand receptor binding assay is performed in a similar way to that described in the literature (J. Marion et al., Mol. Pharmacol. 19 399 (1981)). […] The radioligand (50pM), receptors, and compounds to be tested are coincubated for 2 hours at 4°C. Bound ligand is separated from free ligand via centrifugation and aspiration. […] This assay has been adopted from the literature (H.A. Jinnah and P.M. Conn, Endrocrinology 118 2599 (1986)). Rat pituitaries are removed from immature female rats, minced, and dissociated with collagenase/hyaluronidase. They are allowed to attach to 48-well microtiter plates for 48-72 hours, then are exposed to test compounds for 3 hours at 37°C. The medium is assayed for released LH by RIA (radioimmunoassay). […] The compound to be tested is administered to castrated rats intraveneously and the serum LH concentration at various time points is measured by RIA. The time inteorated LH response is calculated and the dose producing half-maximal LH release (ED₅₀) is reported. • (d) Stability against enzymatic degradation. The intestinal stability of the compounds of the invention was determined using in vitro rat jejunum in a reperfusion system. The fractional mucosal loss was an indicator of the relative rate if degradation of the compounds thirty minutes after introduction of the luminal bath.
row,Ki [nM],Structure (SMILES)
1,0.0398,"CC(C)C[C@H](NC(=O)[C@@H](Cc1ccc2ccccc2c1)NC(=O)[C@H](Cc1ccc(O)cc1)NC(=O)[C@H](CO)N(C)C(=O)[C@H](Cc1c[nH]c2ccccc12)NC(=O)[C@H](Cc1c[nH]cn1)NC(=O)[C@@H]1CCC(=O)N1)C(=O)N[C@@H](CCCN=C(N)N)C(=O)N1CCC[C@H]1C(=O)NCC(N)=O [Ex. 3, (pyro)Glu-His-Trp-N-Me-Ser-Tyr-D-(2)-Nal-Leu-Arg-Pro-Gly-NH₂]"
2,0.692,"CCNC(=O)[C@@H]1CCCN1C(=O)[C@H](CCCN=C(N)N)NC(=O)[C@H](CC(C)C)NC(=O)[C@@H](CC(C)C)N(C)C(=O)[C@H](Cc1ccc(O)cc1)NC(=O)[C@H](CO)NC(=O)[C@H](Cc1c[nH]c2ccccc12)NC(=O)[C@H](Cc1cnc[nH]1)NC(=O)[C@@H]1CCC(=O)N1 [Ex. 22, (pyro)Glu-His-Trp-Ser-Tyr-N-Me-D-Leu-Leu-Arg-ProNHEt]"
3,0.0158,"CCNC(=O)[C@@H]1CCCN1C(=O)[C@H](CCCN=C(N)N)NC(=O)[C@H](CC(C)C)NC(=O)[C@@H](Cc1c[nH]c2ccccc12)NC(=O)[C@H](Cc1ccc(O)cc1)N(C)C(=O)[C@H](CO)NC(=O)[C@H](Cc1c[nH]c2ccccc12)NC(=O)[C@H](Cc1c[nH]cn1)NC(=O)[C@@H]1CCC(=O)N1 [Ex. 20, (pyro)Glu-His-Trp-Ser-N-Me-Tyr-D-Trp-Leu-Arg-ProNHEt]"
4,0.038,"CCNC(=O)[C@@H]1CCCN1C(=O)[C@H](CCCNC(=N)N)NC(=O)[C@H](CC(C)C)N1CC[C@H](NC(=O)[C@H](Cc2ccc(O)cc2)NC(=O)[C@H](CO)N(C)C(=O)[C@H](Cc2c[nH]c3ccccc23)NC(=O)[C@H](Cc2c[nH]cn2)NC(=O)[C@@H]2CCC(=O)N2)C1=O [Ex. 13, (pyro)-Glu-His-Trp-N-Me-Ser-Tyr-6,7-[2-(S-3-amino-2-oxo-pyrrolidin-1-yl)-S-2-Isopropylmethylacetyl]-Arg-Pro-NHEt]"

# System: serum LH concentration
# Experiment: In vivo LH release in castrated rats (serum LH by RIA)
# Details: i.v., dose producing half-maximal time integrated LH release
# Method: as §1
row,Structure (SMILES),ED₅₀ [µg/kg]
1,"CC(C)C[C@H](NC(=O)CNC(=O)[C@H](Cc1ccc(O)cc1)NC(=O)[C@H](CO)NC(=O)[C@H](Cc1c[nH]c2ccccc12)NC(=O)[C@H](Cc1c[nH]cn1)NC(=O)[C@@H]1CCC(=O)N1)C(=O)N[C@@H](CCCNC(=N)N)C(=O)N1CCC[C@H]1C(=O)NCC(N)=O [LHRH, reference compound]",100
2,"CCNC[C@@H](C(=O)N[C@@H](Cc1ccc(O)cc1)C(=O)N[C@H](Cc1c[nH]c2ccccc12)C(=O)N[C@@H](CC(C)C)C(=O)N[C@@H](CCCNC(=N)N)C(=O)N1CCC[C@H]1C(=O)NCC)N(C)C(=O)[C@H](Cc1c[nH]c2ccccc12)NC(=O)[C@H](Cc1c[nH]cn1)NC(=O)CN(C)C(C)=O [Ex. 7, N-Ac-Sar-His-Trp-(3)-N-Et-(2)-N-Me-Dap-Tyr-D-Trp-Leu-Arg-Pro-NHEt] (Ac-[Sar]HW[X1]Y[dW]LRP-NHEt)",9.64
3,"CCNC(=O)CC[C@H](NC(=O)NCC)C(=O)N[C@@H](Cc1c[nH]cn1)C(=O)N[C@@H](Cc1c[nH]c2ccccc12)C(=O)N(C)[C@@H](CO)C(=O)N[C@@H](Cc1ccc(O)cc1)C(=O)N[C@H](Cc1c[nH]c2ccccc12)C(=O)N[C@@H](CC(C)C)C(=O)N[C@@H](CCCNC(=N)N)C(=O)N1CCC[C@H]1C(=O)NCC [Ex. 12, (2)-N-(Ethylaminocarbonyl)-(5)-N-ethylamido-Glu-His-Trp-N-Me-Ser-Tyr-D-Trp-Leu-Arg-Pro-NHEt]",9.90
